This is an account of results in PubChem BioAssay AID493250 (Broad Institute, 2011).

Active and inactive are the calls of the source.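 The calls were made as follows: active = signal decrease with fitted half-maximal dose at or below ten times the highest valid tested dose; inconclusive = poor fit, or flat fit at 30 to 70% inhibition; inactive = the rest.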

The target of the first experiment is Zinc finger protein mex-5 (Caenorhabditis elegans) (UniProt Q9XUB2). The experiment is described as follows: inhibitors of MEX-5 RNA binding, dose response, biochemical, fluorescence polarization, C. elegans, cherry-picked, round 3 (AID 493250). The following applies: purified MEX-5-MBP, FITC-TCR2 RNA fluorescence polarization.
Zinc finger protein mex-5 (Caenorhabditis elegans), sequence (Q9XUB2 whole entry, looked up): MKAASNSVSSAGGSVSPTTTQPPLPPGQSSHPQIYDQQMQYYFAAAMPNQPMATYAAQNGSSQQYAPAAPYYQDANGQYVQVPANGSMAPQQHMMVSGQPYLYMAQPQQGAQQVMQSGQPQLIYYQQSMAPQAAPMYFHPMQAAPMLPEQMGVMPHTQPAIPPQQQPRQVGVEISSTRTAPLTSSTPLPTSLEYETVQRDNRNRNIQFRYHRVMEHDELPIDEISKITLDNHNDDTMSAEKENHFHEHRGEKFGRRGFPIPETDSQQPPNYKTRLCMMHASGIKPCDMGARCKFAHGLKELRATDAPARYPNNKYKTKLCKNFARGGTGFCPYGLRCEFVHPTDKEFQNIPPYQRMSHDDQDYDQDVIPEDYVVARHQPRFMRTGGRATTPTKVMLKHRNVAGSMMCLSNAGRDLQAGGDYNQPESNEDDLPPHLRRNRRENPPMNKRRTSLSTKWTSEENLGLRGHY
Regarding `COc1cccc(C2C=C(c3cccs3)Nc3ncnn32)c1OC` (stereo not given), the AC50 is > 10 µM (inactive).

On to `Cc1cccc2c(N=Nc3ccccc3)c(O)[nH]c12`, for which the AC50 is > 10 µM (inactive).

On to `Cn1c(O)c(N=Nc2ccc(F)cc2)c2ccccc21`, for which the AC50 was 1.75 µM.

Still in this experiment, the particulars now being: purified MEX-5-MBP, FITC-TCR2 RNA fluorescence polarization; at 10 µM (top of the series).
As to `O=c1[nH]nc(CNc2ccc(Cl)cc2Cl)c2ccccc12`, the “activity change, negative = inhibition” value was “inactive”.

Regarding `O=C(NNC(=O)c1ccccc1Cl)c1csc(N2CCOCC2)n1`, the “activity change, negative = inhibition” value was “inactive”.

`CCCCN(CCCC)CCNC(=O)CNC(=O)c1cccs1`: the “activity change, negative = inhibition” value is “inactive”.

Take `CCOc1ccc(/C=N/n2c(C)nc3ccccc3c2=O)cc1`: the “activity change, negative = inhibition” value was “inactive”.

Take `N#C/C(C(N)=O)=C1/CCc2ccccc2N1`: the “activity change, negative = inhibition” value is “inactive”.

As for `CS(=O)(=O)c1nsc2nc(=O)c(/C=C3\C=Nc4ccccc43)c(N)n12`, the “activity change, negative = inhibition” value is “inactive”.

As to `CNC(=O)c1c(NC(=O)c2nc3ccccc3s2)sc2c1CCC2`, the “activity change, negative = inhibition” value was “inactive”.

For `O=c1[nH]c2ccccc2n1Cc1ccc(Cl)cc1`, the “activity change, negative = inhibition” value was “inactive”.

In the case of `Cc1ccc(C(=O)N/C(=C\c2ccc(-c3ccccc3[N+](=O)[O-])o2)C(=O)NCCN(C)C)cc1`, the “activity change, negative = inhibition” value was “inactive”.

For the compound `CCOC(=O)[C@]1(C#N)[C@@H]2C=CC(C(N)=O)=CN2[C@@H](C(N)=O)[C@@H]1c1ccc(F)cc1`, the “activity change, negative = inhibition” value was “inactive”.

`NC(=S)N=Nc1c(O)[nH]c2ccccc12`: the “activity change, negative = inhibition” value was “inactive”.

On to `CSc1ccccc1N=Cc1nc(-c2ccccc2)oc1O`, for which the “activity change, negative = inhibition” value is “inactive”.

As to `CCCC(=O)Nc1ccc(NC(=O)c2cccs2)cn1`, the “activity change, negative = inhibition” value was “inactive”.

Take `Cc1ccc2c(c1)-c1ccccc1S(=O)(=O)N2`: the “activity change, negative = inhibition” value was “inactive”.

For the compound `CN1CCCc2cc(C=O)ccc21`, the “activity change, negative = inhibition” value is “inactive”.

Consider `Cc1cc(C)c[n+](-c2[nH]c(=O)sc2/C=N/N=C(\N)[S-])c1`, for which the “activity change, negative = inhibition” value was “inactive”.

For `CC(=O)N1CCc2c(sc(NC(=O)C3CCCN3S(=O)(=O)c3cccs3)c2C#N)C1` (stereo not given), the “activity change, negative = inhibition” value was “inactive”.

Turning to `COc1ccc(/C=C/C(=O)c2cc(Cl)cc(Cl)c2O)c(OC)c1`, the “activity change, negative = inhibition” value is “inactive”.

As for `Cc1nc2ccc(NC(=O)NC(=O)c3c(Cl)cccc3Cl)cc2o1`, the “activity change, negative = inhibition” value is “inactive”.

For the compound `O=C(O)CCC(=O)NNc1ncnc2ccccc12`, the “activity change, negative = inhibition” value is “inactive”.

For `O=C(NNC(=O)c1ccco1)c1csc(N2CCOCC2)n1`, the “activity change, negative = inhibition” value is “inactive”.

As to `NS(=O)(=O)c1ccc(N=Nc2ccc(=O)[nH]c2O)cc1`, the “activity change, negative = inhibition” value is “inactive”.

Regarding `O=c1[nH]nc(CNc2ccc(OC(F)(F)F)cc2)c2ccccc12`, the “activity change, negative = inhibition” value is “inactive”.

As for `CCOc1cc(/C=N/NC(=O)N/N=C/c2ccc(O)c(OCC)c2)ccc1O`, the “activity change, negative = inhibition” value was “inactive”.

Turning to `COc1ccc2c(c1)NC(c1ccc(N(C)C)cc1)c1cccn1-2` (stereo not given), the “activity change, negative = inhibition” value was “inactive”.

On to `O=C(O)CC1S/C(=N/N=C/c2ccc(-c3ccccc3[N+](=O)[O-])o2)NC1=O` (stereo not given), for which the “activity change, negative = inhibition” value is “inactive”.

Take `COC(=O)c1ccccc1N=Nc1c(N)n[nH]c1N`: the “activity change, negative = inhibition” value is “inactive”.
